The conditions of data set [1]: EtOH printed for cyproconazole only; cited from earlier work.
Data set [2] is described as follows: Rapid solvent extraction screen of coated specimens (water, 50% MeOH, 100% MeOH). Format: physicochemical. The method, then: (§1) Two experimental protocols were used to evaluate aqueous release and the extent of active retention. The first protocol was a rapid solvent extraction screen that involved dipping the coated specimens sequentially into vials containing 35 ml water for 1, 1, 5, and 10 minutes, then 50% MeOH for 10 minutes, and 100% MeOH for 24 hours. This protocol provided a rapid comparison of water soluble and entrained, but releasable, active fractions. The second protocol was to assess release rates based on simulated precipitation/rainfall conditions. This protocol involved maintaining test samples in successive 35 ml volumes of water for 24-hour periods for up to […], providing a cumulative daily release rate from dried films. This water extraction period was followed by a single extraction in 100% MeOH for 24 and 48 hrs to determine residual/entrained or solvent removable active. The aqueous leach procedure is considered extreme in simulating intermittent daily rainfalls of varying intensity, but does provide the rates of release for comparative purposes.
The influence of formulation factors on cyproconazole release and entrainment from aqueous solutions containing 0.2% EtOH without latex (FIG. 1A) was compared to the subsequent EtOH studies with latex. […] This would be expected to represent the relative solubility and release of active, and likely dependent on water solubility of the active.
To determine the influence of latex on cyproconazole release, cyproconazole was first dissolved in ethanol and added to 2% latex solutions to assess the effects on cyproconazole binding with latex using solvent extractions (FIG. 1A).
The first step was to determine the solvent extractability of the non-latex formulations. This was based on readily soluble (water, 17 minutes), easily soluble (50% MeOH, 10 minutes), and relatively non-water soluble (100% MeOH, 24 hr) fractions of the formulations (FIG. 3).
A total of nine commercial surfactants (Table 1) were compared for relative entrainment of cyproconazole in latex, based on the percent of active contained in the 100% MeOH fraction (FIG. 5).
The same solvent extraction protocol was used to evaluate 2 other fungicides (chlorothalonil and spiroxamine) with differing chemistries (water solubility and solvent solubility). These were evaluated using the same solvent extraction protocol. The three surfactants that worked best with cyproconazole were used for these actives.

Data set [3] in a line: Simulated rainfall / sequential aqueous leaching of dried films. The data set is classed as physicochemical. The arrangement: depletion of supplied active by aqueous extraction / release rate, % of supplied active: concentration or dose not given beside the values. The note with it: for release rate of active: FIG. 10; for release rate, % of supplied active: FIG. 8; for recoverable active released to water: FIG. 9. The method, then:
as §1
The solvent extraction method used above represents a rapid screen for the comparative entrainment behavior of actives and surfactants in the formulated latex system. To address the problem of foliar retention and longevity of actives using a single field application is more a function of rainfall frequency and intensity. To better understand this process under laboratory conditions, we employed a continuous/sequential aqueous (pH 6.0-6.8) leaching process, with periodic sampling and replacement of the solution over periods up to 288 hrs. This is a rather harsh leaching process, but is more representative than the water/MeOH solvent extraction procedure used for screening.
In the simulated rainfall study, we compared the aqueous extraction patterns for cyproconazole at 0.06% with 0.24% EtOH (1×) added to latex (with no surfactant), cyproconazole with […] and 0.05% PP912T added to latex, and cyproconazole with 1% EtOH (4×) and 0.05% PP912T added to latex. This combination was designed to determine formulation variables including surfactant and increased EtOH.
Aqueous extraction of formulations containing chlorothalonil and spiroxamine with latex without surfactant and with PP912T, AU-398 and AU-391A were compared to evaluate long term extraction profiles and residual active after 144 hrs of extraction, sampled at 24 hr intervals.

[4] abbreviates: aqueous 0.2% EtOH, without latex, FIG. 1A.

Values joined by “and” are separate entries in the source; they are usually repeats but may differ in a detail not shown here. Equal entries are not always repeated.

As to `N#Cc1c(Cl)c(Cl)c(Cl)c(C#N)c1Cl` [chlorothalonil], in data set [1], the solvent solubility was 10000 µg/mL. In addition, in data set [2] (latex, with PP912T and AU-398, FIG. 6), the “100% MeOH retention compared to no surfactant” value was “increase”. In addition, the “release rate of active” value is on record as 63% in data set [3] (latex alone, at 6 days) and 80-88% in data set [3] (latex with surfactants, 6 days). Further, in data set [3] (without surfactant, after 6 days of extraction, FIG. 11), the “active remained after extraction” value was 16%.

For the molecule `CC(C1CC1)C(O)(Cn1cncn1)c1ccc(Cl)cc1` (centres unmarked) [cyproconazole], in data set [2] (setting [4]), the “50% MeOH fraction of active” value is given as 68%. Also, the “100% MeOH fraction of active” value is 13.5% and 13% in data set [2] (setting [4]); 32% in data set [2] (dissolved in ethanol, added to 2% latex solution, FIG. 1A). The “water extractable fraction of active” value in data set [2] (setting [4]) is 18.5%. The “release rate, % of supplied active” value is reported as 60% in data set [3] (latex with AU-391A, at 6 days); 50% in data set [3] (latex with AU-398, at 6 days); 73% in data set [3] (latex with PP912T, at 6 days). Moreover, in data set [3] (latex with surfactant PP912T, at 288 days, FIG. 7), the “depletion of supplied active by aqueous extraction” value is 90%. The “time to attain 90% loss to water” value in data set [3] (latex/EtOH, FIG. 1B) is reported as 12 days. In addition, the “time at which aqueous loss of supplied active was 90%” value in data set [3] (without latex, FIG. 1B) is recorded as 2.5 days.

With `CCCN(CC)CC1COC2(CCC(C(C)(C)C)CC2)O1` (centres unmarked) [spiroxamine], the “release to water compared to the no-surfactant control” value in data set [2] (latex, with PP912T, AU-398 and AU-391A, FIG. 6) is given as “increased release”. The “recoverable active released to water” value in data set [3] (latex alone, 144 hr extraction) was 85%; in data set [3] (latex plus AU-391A, 144 hr extraction), 85%; in data set [3] (latex plus AU-398, 144 hr extraction), 50%; in data set [3] (latex plus PP912T, 144 hr extraction), 50%. Moreover, the “effect on release compared to latex alone” value in data set [3] (latex with AU-391A) is listed as “no effect”. In data set [3] (latex with PP912T and AU-398), the “release rate compared to latex alone” value is listed as “substantial reduction”. Besides, the active released in data set [3] (with latex, without surfactant, 6 days extraction, FIG. 13) was 94%.

The values above are taken from US20150366190A1, “Sustained Release Methods to Defeat Plant Pests” (BioGuard Technologies, Inc., priority 2014, published 2015).
